Experimental data published in patent publication US8703756B2, “Synthetic procedure and cancer treatment with cisplatin derivatives” (The Board of Regents of the Nevada System of Higher …, priority 2012, dated 2014).

What was measured:
[1] = test system: A549 human lung cancer cells; test: MTS cell proliferation assay, A549 lung cancer cells; type: cell-based; details: for effects in this experimental setting: human cancer cell line setting of b48
Description: A series of cisplatin analogs of the formula (4,4′-bis[RO]-2,2′-bipyridine)PtCl2 [where, R=—(CH2)nCH3, —(CH2)nOCH3, —(CH2)n[O(CH2)m]yO(CH2)zCH3 (n=1-10; m, y, z=0-10)] were synthesized and characterized using ^1H NMR, ^13C NMR spectroscopy, and elemental analysis. The antitumor activities of these compounds were examined in a lung cancer cell line (A549) using the MTS cell proliferation assay and the results were compared to that of cisplatin and cisplatin derivatives.
(§1) Cells were cultured at a density of 2.1×10^3 cells per well in flat bottomed 96-well plates in 100 μl of medium supplemented with 10% fetal bovine serum (FBS), 25 mM HEPES buffer (pH 7.4), Penicillin (100 U/ml) and Streptomycin (100 μg/ml) and incubated at 37° C. in a humidified, 5% CO2 atmosphere for 2 days. The cells were then treated with DMSO or the appropriate drugs for 1 hour, washed thrice with 100 μl phosphate buffered saline (PBS), and incubated in 100 μl of fresh medium. After 2 days, the medium was replace with 120 μl of medium containing 50 μM phenazine ethosulfate (PES) and 317 μg/mL CellTiter 96® Aqueous One Solution Reagent (MTS) (Promega, Madison, Wis.). After 4 hours in culture the cell viability was determined by measuring the absorbance at 490 nm using a Tecan Infinite M1000 plate reader.
Cells were treated with CDDP or the platinum analogs at various concentrations for 1 hour and the viability was determined 48 h post-treatment using the MTS assay.
Cells were treated with CDDP or the platinum analogs at various concentrations for 48 hour and the viability was determined post-treatment using the MTS assay.

[2] = tested on mice; cited from earlier work
[3] = test system: T-47D human breast cancer cells; test: MTS assay, T-47D breast cancer cells; type: cell-based; details: up to a 1 mM concentration
Description: as §1
(§2) Cells were treated with CDDP or the platinum analog at various concentrations for 1 hour and the viability was determined 48 h post-treatment using the MTS assay.
(§3) This is a table comparison of EC50 (μM) determined from MTS assay data of the various cell lines treated with CDDP or the analog where R=(CH2)3CH3.

[4] = test system: MCF7 human breast cancer cells; test: MTS assay, MCF7 breast cancer cells; type: cell-based; details: MCF7, up to a 1 mM concentration
Description: as §1, §2, §3

[5] = test system: DU-145 human prostate cancer cells; test: MTS assay, DU-145 prostate cancer cells; type: cell-based; details: DU-145, up to a 1 mM concentration
Description: as §1, §2, §3

[6] = test system: HCC38 human breast cancer cells; test: MTS assay, HCC38 breast cancer cells; type: cell-based; details: HCC38, up to a 1 mM concentration
Description: as §1, §2, §3

[7] = test system: MDA-MB-435 human melanoma cancer cells; test: MTS assay, MDA-MB-435 melanoma cancer cells; type: cell-based; details: MDA-MB-435, up to a 1 mM concentration
Description: as §1, §2, §3

Molecule: N.N.O=C([O-])C1(C(=O)[O-])CCC1.[Pt+2] [carboplatin]
- effects in this experimental setting [1]: lack of effects

Molecule: N.N.[Cl][Pt][Cl] [cisplatin, cis-diamminedichloroplatinum]
- percent increased life span (% ILS) [2]: 65-80%
- effect on the cell line [3]: little or no effect
- effect on the cell line [4]: little or no effect
- effect on the cell line [5]: little or no effect
- effect on the cell line [6]: little or no effect
- effectiveness, 48 h treatment ([1]; A549, concentrations higher than 500 μM): not very effective
- effects in this experimental setting [1]: lack of effects
- effect on the A549 cells ([1]; one hour treatment, up to a 1 mM concentration): no effect
- effect on the cell line [7]: little or no effect

Molecule: O=C(O)C(=O)O.[NH-][C@@H]1CCCC[C@H]1[NH-].[Pt+2] [oxaliplatin]
- effects in this experimental setting [1]: lack of effects

Molecule: Pd(II)(cis-2,2′-bipyridine)(NO3)2
- percent increased life span (% ILS) [2]: 55-70%
